These are literature values, as cited in patent publication US20090099199A1, “ORGANIC COMPOUNDS” (priority 2007, published 2009).

The structures appear in SMILES notation.

The subject of the data set is rats. To be noted: icv administration (Thorsell et al. Neurosci. Lett. 2002); cited from earlier work.

Take `N=C(N)NCCC[C@H](NC(=O)CC1(CC(=O)N2CCN(C3c4ccccc4NC(=O)c4ccccc43)CC2)CCCC1)C(=O)NCCn1c(=O)n(-c2ccccc2)n(-c2ccccc2)c1=O` (stereo partly shown) [BIIE0246]: the ethanol self-administration entry is reported as “dose dependently reduced ethanol self-administration”.
